Measured values: patent publication US9708314B2, “Heterocyclic amide compound” (NISSAN CHEMICAL INDUSTRIES, LTD., priority 2013, dated 2017)

Tests used:
Type in all cases: in vivo
Scirpus juncoides = test: Test Example 2: herbicidal activity, application during weed generation in submerged conditions; details: Eighteenth Table; application herbicide amount 320 g/ha
Method in brief: (§1)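 Mixed sowings in flooded alluvial soil (4 cm water), greenhouse 25-30 °C; emulsifiable concentrate diluted in water applied to the water surface at the 1-2 leaf stage, rate in g/ha. Effect scored three weeks later on a 0-5 scale (5 = ≥90% herbicidal ratio, 0 = ≤5%).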

[1] = tested on: Echinochloa oryzacola Vasing.; test: as above; details: Eighteenth Table; application herbicide amount 320 g/ha
Method in brief: as §1

Monochoria vaginalis = test: as above; details: Eighteenth Table; application herbicide amount 320 g/ha
Method in brief: as §1

Abutilon theophrasti = test: Test Example 4: herbicidal effect by application to foliage (diluvial soil, plastic box); details: for M: Application herbicide amount 320 g/ha; for M (Abutilon theophrasti) herbicidal effect: application to foliage, application herbicide amount 320 g/ha
Method in brief: (§2)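 Plants were grown in sterilized diluvial soil in a greenhouse at 25-30° C for 14 days, then sprayed on stems and leaves with water-diluted emulsion formulation at set rates in g/ha. Weed control and crop injury were scored 3 weeks after treatment on a 0-5 herbicidal-ratio scale, from 0 (≤5%) to 5 (≥90%).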

Setaria viridis = test: as above; details: for G: Application herbicide amount 320 g/ha; for G (Setaria viridis) herbicidal effect: application to foliage, application herbicide amount 320 g/ha
Method in brief: as §2

Apera spica-venti. = test: as above; details: for L: Application herbicide amount 320 g/ha; for L (Apera spica-venti.) herbicidal effect: application to foliage, application herbicide amount 320 g/ha
Method in brief: as §2

Galium spurium = test: as above; details: for Q: Application herbicide amount 320 g/ha; for Q (Galium spurium) herbicidal effect: application to foliage, application herbicide amount 320 g/ha
Method in brief: as §2

Chenopodium album = test: as above; details: for O: Application herbicide amount 320 g/ha; for O (Chenopodium album) herbicidal effect: application to foliage, application herbicide amount 320 g/ha
Method in brief: as §2

Alopecurus myosuroides = test: as above; details: for J: Application herbicide amount 320 g/ha; for J (Alopecurus myosuroides) herbicidal effect: application to foliage, application herbicide amount 320 g/ha
Method in brief: as §2

Digitaria ciliaris = test: as above; details: for F: Application herbicide amount 320 g/ha; for F (Digitaria ciliaris) herbicidal effect: application to foliage, application herbicide amount 320 g/ha
Method in brief: as §2

Veronica persica = test: as above; details: for R: Application herbicide amount 320 g/ha; for R (Veronica persica) herbicidal effect: application to foliage, application herbicide amount 320 g/ha
Method in brief: as §2

Lolium multiflorum Lam. = test: as above; details: for K: Application herbicide amount 320 g/ha; for K (Lolium multiflorum Lam.) herbicidal effect: application to foliage, application herbicide amount 320 g/ha
Method in brief: as §2

[2] = tested on: Echinochloa crus-galli var. crus-galli; test: as above; details: for H: Application herbicide amount 320 g/ha; for H (Echinochloa crus-galli var. crus-galli) herbicidal effect: application to foliage, application herbicide amount 320 g/ha
Method in brief: as §2

Avena fatua = test: as above; details: for I: Application herbicide amount 320 g/ha; for I (Avena fatua) herbicidal effect: application to foliage, application herbicide amount 320 g/ha
Method in brief: as §2

Brassica campestris L. = test: Test Example 4: effect on crop by application to foliage (diluvial soil, plastic box); details: for g: Application herbicide amount 320 g/ha, effect on crop; for g (Brassica campestris L.) effect on crop: application to foliage, application herbicide amount 320 g/ha
Method in brief: as §2

[3] = tested on: directly sowed Oryza sativa; test: as above; details: for d: Application herbicide amount 320 g/ha, effect on crop; for d (directly sowed Oryza sativa) effect on crop: application to foliage, application herbicide amount 320 g/ha
Method in brief: as §2

Glycine max = test: as above; details: for c: Application herbicide amount 320 g/ha, effect on crop; for c (Glycine max) effect on crop: application to foliage, application herbicide amount 320 g/ha
Method in brief: as §2

Triticum aestivum = test: as above; details: for e: Application herbicide amount 320 g/ha, effect on crop; for e (Triticum aestivum) effect on crop: application to foliage, application herbicide amount 320 g/ha
Method in brief: as §2

Zea mays = test: as above; details: for b: Application herbicide amount 320 g/ha, effect on crop; for b (Zea mays) effect on crop: application to foliage, application herbicide amount 320 g/ha
Method in brief: as §2

[4] = tested on: Beta vulgaris ssp. vulgaris; test: as above; details: for f: Application herbicide amount 320 g/ha, effect on crop; for f (Beta vulgaris ssp. vulgaris) effect on crop: application to foliage, application herbicide amount 320 g/ha
Method in brief: as §2

Row | Compound | B (Scirpus juncoides) herbicidal ratio grade (Scirpus juncoides) | A (Echinochloa oryzicola Vasing.) herbicidal ratio grade [1] | C (Monochoria vaginalis) herbicidal ratio grade (Monochoria vaginalis) | M (Abutilon theophrasti) | G (Setaria viridis) | L (Apera spica-venti.) | Q (Galium spurium) | O (Chenopodium album) | J (Alopecurus myosuroides) | F (Digitaria ciliaris) | R (Veronica persica) | K (Lolium multiflorum Lam.) | H [2] | I (Avena fatua) | g (Brassica campestris L.) | d [3] | c (Glycine max) | e (Triticum aestivum) | b (Zea mays) | f [4] | also measured
1 | Cc1nnc(NC(=O)c2ccc(C(F)(F)F)n3c(-c4ccc(Cl)nc4)nnc23)o1 [1-054] | 3 (Herbicidal ratio of 40% or more and less than 70%) | 4 (Herbicidal ratio of 70% or more and less than 90%) | 3 (Herbicidal ratio of 40% or more and less than 70%) | 5 (Herbicidal ratio of 90% or more (almost completely withered)) | 4 (Herbicidal ratio of 70% or more and less than 90%) | 3 (Herbicidal ratio of 40% or more and less than 70%) | 4 (Herbicidal ratio of 70% or more and less than 90%) | 5 (Herbicidal ratio of 90% or more (almost completely withered)) | 3 (Herbicidal ratio of 40% or more and less than 70%) | 5 (Herbicidal ratio of 90% or more (almost completely withered)) | 5 (Herbicidal ratio of 90% or more (almost completely withered)) | 3 (Herbicidal ratio of 40% or more and less than 70%) | 5 (Herbicidal ratio of 90% or more (almost completely withered)) | 3 (Herbicidal ratio of 40% or more and less than 70%) | 4 (Herbicidal ratio of 70% or more and less than 90%) | 3 (Herbicidal ratio of 40% or more and less than 70%) | 1 (Herbicidal ratio of 5% or more and less than 20%) | 3 (Herbicidal ratio of 40% or more and less than 70%) | 0 (Herbicidal ratio of 5% or less (almost no effect)) | 4 (Herbicidal ratio of 70% or more and less than 90%) | 
2 | Cc1nnc(NC(=O)c2ccc(C(F)(F)F)n3c(-c4cncs4)nnc23)o1 [1-058] | 5 (Herbicidal ratio of 90% or more (almost completely withered)) | 4 (Herbicidal ratio of 70% or more and less than 90%) | 4 (Herbicidal ratio of 70% or more and less than 90%) | 5 (Herbicidal ratio of 90% or more (almost completely withered)) | 5 (Herbicidal ratio of 90% or more (almost completely withered)) | 2 (Herbicidal ratio of 20% or more and less than 40%) | 2 (Herbicidal ratio of 20% or more and less than 40%) | 5 (Herbicidal ratio of 90% or more (almost completely withered)) | 3 (Herbicidal ratio of 40% or more and less than 70%) | 5 (Herbicidal ratio of 90% or more (almost completely withered)) | 5 (Herbicidal ratio of 90% or more (almost completely withered)) | 3 (Herbicidal ratio of 40% or more and less than 70%) | 5 (Herbicidal ratio of 90% or more (almost completely withered)) | 3 (Herbicidal ratio of 40% or more and less than 70%) | 4 (Herbicidal ratio of 70% or more and less than 90%) | 4 (Herbicidal ratio of 70% or more and less than 90%) | 4 (Herbicidal ratio of 70% or more and less than 90%) | 1 (Herbicidal ratio of 5% or more and less than 20%) | 5 (Herbicidal ratio of 90% or more (almost completely withered)) | 5 (Herbicidal ratio of 90% or more (almost completely withered)) | 
3 | Cc1nnc(NC(=O)c2ccc(C(F)(F)F)n3c(CSCC(F)(F)F)nnc23)o1 [1-031] | 2 (Herbicidal ratio of 20% or more and less than 40%) | 3 (Herbicidal ratio of 40% or more and less than 70%) | 2 (Herbicidal ratio of 20% or more and less than 40%) |  |  |  |  |  |  |  |  |  |  |  |  |  |  |  |  |  | M (Abutilon theophrasti) herbicidal effect (Abutilon theophrasti): 5 (Herbicidal ratio of 90% or more (almost completely withered)); G (Setaria viridis) herbicidal effect (Setaria viridis): 4 (Herbicidal ratio of 70% or more and less than 90%); L (Apera spica-venti.) herbicidal effect (Apera spica-venti.): 1 (Herbicidal ratio of 5% or more and less than 20%); Q (Galium spurium) herbicidal effect (Galium spurium): 3 (Herbicidal ratio of 40% or more and less than 70%); O (Chenopodium album) herbicidal effect (Chenopodium album): 5 (Herbicidal ratio of 90% or more (almost completely withered)); J (Alopecurus myosuroides) herbicidal effect (Alopecurus myosuroides): 1 (Herbicidal ratio of 5% or more and less than 20%); F (Digitaria ciliaris) herbicidal effect (Digitaria ciliaris): 4 (Herbicidal ratio of 70% or more and less than 90%); R (Veronica persica) herbicidal effect (Veronica persica): 4 (Herbicidal ratio of 70% or more and less than 90%); K (Lolium multiflorum Lam.) herbicidal effect (Lolium multiflorum Lam.): 1 (Herbicidal ratio of 5% or more and less than 20%); H (Echinochloa crus-galli var. crus-galli) herbicidal effect [2]: 5 (Herbicidal ratio of 90% or more (almost completely withered)); I (Avena fatua) herbicidal effect (Avena fatua): 2 (Herbicidal ratio of 20% or more and less than 40%); g (Brassica campestris L.) effect on crop (Brassica campestris L.): 3 (Herbicidal ratio of 40% or more and less than 70%); d (directly sowed Oryza sativa) effect on crop [3]: 3 (Herbicidal ratio of 40% or more and less than 70%); c (Glycine max) effect on crop (Glycine max): 1 (Herbicidal ratio of 5% or more and less than 20%); e (Triticum aestivum) effect on crop (Triticum aestivum): 1 (Herbicidal ratio of 5% or more and less than 20%); b (Zea mays) effect on crop (Zea mays): 0 (Herbicidal ratio of 5% or less (almost no effect)); f (Beta vulgaris ssp. vulgaris) effect on crop [4]: 3 (Herbicidal ratio of 40% or more and less than 70%)
4 | CCC(C)c1nnc2c(C(=O)Nc3nnc(C)o3)ccc(C(F)(F)F)n12 (centres unmarked) [1-021] | 4 (Herbicidal ratio of 70% or more and less than 90%) | 4 (Herbicidal ratio of 70% or more and less than 90%) | 3 (Herbicidal ratio of 40% or more and less than 70%) |  |  |  |  |  |  |  |  |  |  |  |  |  |  |  |  |  | M (Abutilon theophrasti) herbicidal effect (Abutilon theophrasti): 5 (Herbicidal ratio of 90% or more (almost completely withered)); G (Setaria viridis) herbicidal effect (Setaria viridis): 3 (Herbicidal ratio of 40% or more and less than 70%); L (Apera spica-venti.) herbicidal effect (Apera spica-venti.): 1 (Herbicidal ratio of 5% or more and less than 20%); Q (Galium spurium) herbicidal effect (Galium spurium): 3 (Herbicidal ratio of 40% or more and less than 70%); O (Chenopodium album) herbicidal effect (Chenopodium album): 5 (Herbicidal ratio of 90% or more (almost completely withered)); J (Alopecurus myosuroides) herbicidal effect (Alopecurus myosuroides): 1 (Herbicidal ratio of 5% or more and less than 20%); F (Digitaria ciliaris) herbicidal effect (Digitaria ciliaris): 4 (Herbicidal ratio of 70% or more and less than 90%); R (Veronica persica) herbicidal effect (Veronica persica): 4 (Herbicidal ratio of 70% or more and less than 90%); K (Lolium multiflorum Lam.) herbicidal effect (Lolium multiflorum Lam.): 1 (Herbicidal ratio of 5% or more and less than 20%); H (Echinochloa crus-galli var. crus-galli) herbicidal effect [2]: 4 (Herbicidal ratio of 70% or more and less than 90%); I (Avena fatua) herbicidal effect (Avena fatua): 1 (Herbicidal ratio of 5% or more and less than 20%); g (Brassica campestris L.) effect on crop (Brassica campestris L.): 3 (Herbicidal ratio of 40% or more and less than 70%); d (directly sowed Oryza sativa) effect on crop [3]: 3 (Herbicidal ratio of 40% or more and less than 70%); c (Glycine max) effect on crop (Glycine max): 0 (Herbicidal ratio of 5% or less (almost no effect)); e (Triticum aestivum) effect on crop (Triticum aestivum): 1 (Herbicidal ratio of 5% or more and less than 20%); b (Zea mays) effect on crop (Zea mays): 1 (Herbicidal ratio of 5% or more and less than 20%); f (Beta vulgaris ssp. vulgaris) effect on crop [4]: 5 (Herbicidal ratio of 90% or more (almost completely withered))
